How the values were obtained:
[1] = dissolution of crystalline form I; assay type: physicochemical
Description: Obtaining this crystalline form has the advantage of allowing especially rapid and efficient filtration and also the preparation of pharmaceutical formulations having a consistent and reproducible composition, which is especially advantageous when those formulations are intended for oral administration.

central nervous system = assay: pharmacological study
Description: Neurodegenerative diseases more especially targeted are Alzheimer's disease, Parkinson's disease, Pick's disease, Korsakoff's disease, Lewy body dementias, frontal and subcortical dementias, frontotemporal dementias and vascular dementias.

[2] = storage stability of crystalline form I; assay type: physicochemical; conditions: periods of up to 18 months
Description: The form thereby obtained is sufficiently stable to allow its storage for an extended period without particular conditions for temperature, light, humidity or oxygen levels.

stability on storage ([2]; at 25° C. with a humidity level of 60% in a double bag of polyethylene)	stability on storage ([2]; at 30° C. with a humidity level of 65% in a double bag of polyethylene)	stability on storage ([2]; at 30° C. with a humidity level of 85% in a double bag of polyethylene)	Compound	dissolution properties [1]	activity on the central nervous system (central nervous system)
very stable	very stable	very stable	Cl.NC(=O)c1ccc(OCCCN2C[C@H]3CCC[C@H]3C2)cc1 [4-{3-[cis-Hexahydrocyclopenta[c]pyrrol-2(1H)-yl]propoxy}benzamide hydrochloride]	noteworthy properties of immediate dissolution	substantial activity
–	–	–	NC(=O)c1ccc(OCCCN2C[C@H]3CCC[C@H]3C2)cc1 [form I of its free base, 4-{3-[cis-Hexahydrocyclopenta[c]pyrrol-2(1H)-yl]propoxy}benzamide]	–	substantial activity
